Measured values from the NIST ThermoML archive (doi:10.1021/je020125e).

Settings: 101.33 kPa, Liquid, Hot wire method

CC(C)C(C)(C)C [2,2,3-trimethylbutane]
Settings | thermal conductivity [W/m/K] | thermal diffusivity [m2/s]
257.27 K | 0.1051 | –
257.53 K | 0.105 | –
257.81 K | 0.1049 | –
258.21 K | – | 7.28e-08
258.88 K | – | 7.27e-08
259.58 K | – | 7.26e-08
277.62 K | 0.1001 | –
277.9 K | 0.0999 | –
278.17 K | 0.0998 | –
278.57 K | – | 6.81e-08
279.26 K | – | 6.79e-08
279.93 K | – | 6.77e-08
296.29 K | 0.09516 | –
296.58 K | 0.09508 | –
296.87 K | 0.09497 | –
297.2 K | – | 6.29e-08
297.91 K | – | 6.32e-08
298.61 K | – | 6.3e-08
313.91 K | 0.09108 | –
314.21 K | 0.09098 | –
314.52 K | 0.09085 | –
314.85 K | – | 6e-08
315.57 K | – | 6e-08
316.3 K | – | 5.98e-08
331.18 K | 0.08718 | –
331.48 K | 0.08706 | –
331.79 K | 0.0869 | –
332.15 K | – | 5.72e-08
332.87 K | – | 5.7e-08
333.59 K | – | 5.66e-08

CC(C)CC(C)(C)C [2,2,4-trimethylpentane]
Settings | thermal conductivity [W/m/K] | thermal diffusivity [m2/s]
259.11 K | 0.1042 | –
259.32 K | 0.1041 | –
259.52 K | 0.104 | –
259.89 K | – | 7.3e-08
260.43 K | – | 7.32e-08
260.92 K | – | 7.33e-08
277.52 K | 0.09971 | –
277.74 K | 0.09966 | –
277.93 K | 0.09958 | –
278.29 K | – | 6.86e-08
278.84 K | – | 6.88e-08
279.31 K | – | 6.87e-08
295.67 K | 0.09516 | –
295.9 K | 0.09509 | –
296.1 K | 0.09502 | –
296.41 K | – | 6.37e-08
296.96 K | – | 6.41e-08
297.45 K | – | 6.42e-08
313.79 K | 0.09108 | –
314.02 K | 0.091 | –
314.22 K | 0.09093 | –
314.56 K | – | 6.07e-08
315.1 K | – | 6.07e-08
315.57 K | – | 6.07e-08
327.69 K | 0.08786 | –
327.93 K | 0.0878 | –
328.14 K | 0.08771 | –
328.47 K | – | 5.82e-08
329.04 K | – | 5.83e-08
329.52 K | – | 5.81e-08

CCC(C)(C)C [2,2-dimethylbutane]
Settings | thermal conductivity [W/m/K] | thermal diffusivity [m2/s]
257.48 K | 0.1055 | –
257.84 K | 0.1053 | –
258.3 K | 0.1051 | –
258.74 K | – | 7.54e-08
259.62 K | – | 7.49e-08
260.73 K | – | 7.46e-08
271.49 K | 0.1011 | –
271.84 K | 0.101 | –
272.32 K | 0.1008 | –
272.79 K | – | 7.16e-08
273.65 K | – | 7.14e-08
274.78 K | – | 7.08e-08
279.86 K | 0.09854 | –
280.24 K | 0.09842 | –
280.73 K | 0.09822 | –
281.17 K | – | 6.94e-08
282.06 K | – | 6.92e-08
283.23 K | – | 6.85e-08
297.98 K | 0.09321 | –
298.42 K | 0.09307 | –
298.91 K | 0.09289 | –
299.31 K | – | 6.48e-08
300.31 K | – | 6.46e-08
301.44 K | – | 6.41e-08
319.35 K | 0.08745 | –
319.75 K | 0.08729 | –
320.28 K | 0.08709 | –
320.72 K | – | 6.03e-08
321.62 K | – | 5.99e-08
322.83 K | – | 5.95e-08

CCCC(C)(C)C [2,2-dimethylpentane]
Settings | thermal conductivity [W/m/K] | thermal diffusivity [m2/s]
256.16 K | 0.1094 | –
256.52 K | 0.1091 | –
256.84 K | 0.109 | –
257.01 K | – | 7.66e-08
257.9 K | – | 7.58e-08
258.7 K | – | 7.56e-08
275.45 K | 0.1041 | –
275.83 K | 0.1039 | –
276.13 K | 0.1037 | –
276.31 K | – | 7.15e-08
277.21 K | – | 7.06e-08
277.95 K | – | 7.03e-08
296.32 K | 0.09819 | –
296.69 K | 0.09803 | –
297.02 K | 0.09794 | –
297.15 K | – | 6.57e-08
298.03 K | – | 6.53e-08
298.82 K | – | 6.49e-08
317.22 K | 0.09288 | –
317.63 K | 0.09264 | –
317.95 K | 0.09251 | –
318.05 K | – | 6.1e-08
318.98 K | – | 6.05e-08
319.72 K | – | 6.03e-08
336.91 K | 0.08793 | –
337.31 K | 0.08776 | –
337.64 K | 0.0876 | –
337.72 K | – | 5.67e-08
338.63 K | – | 5.61e-08
339.39 K | – | 5.59e-08

CC(C)C(C)C(C)C [2,3,4-trimethylpentane]
Settings | thermal conductivity [W/m/K] | thermal diffusivity [m2/s]
259.06 K | 0.1127 | –
259.29 K | 0.1126 | –
259.54 K | 0.1125 | –
259.87 K | – | 7.32e-08
260.45 K | – | 7.32e-08
261.06 K | – | 7.31e-08
277.95 K | 0.1083 | –
278.19 K | 0.1082 | –
278.44 K | 0.108 | –
278.74 K | – | 6.91e-08
279.35 K | – | 6.9e-08
279.93 K | – | 6.87e-08
297.33 K | 0.1036 | –
297.58 K | 0.1035 | –
297.84 K | 0.1033 | –
298.16 K | – | 6.57e-08
298.78 K | – | 6.56e-08
299.4 K | – | 6.54e-08
315.53 K | 0.09948 | –
315.77 K | 0.09926 | –
316.03 K | 0.09916 | –
316.35 K | – | 6.19e-08
316.91 K | – | 6.12e-08
317.54 K | – | 6.12e-08
331.87 K | 0.0958 | –
332.13 K | 0.09569 | –
332.39 K | 0.09551 | –
332.69 K | – | 5.9e-08
333.32 K | – | 5.89e-08
333.91 K | – | 5.84e-08

CC(C)C(C)C [2,3-dimethylbutane]
Settings | thermal conductivity [W/m/K] | thermal diffusivity [m2/s]
256.81 K | 0.1128 | –
257.19 K | 0.1127 | –
257.69 K | 0.1125 | –
258.09 K | – | 7.87e-08
258.98 K | – | 7.85e-08
260.13 K | – | 7.79e-08
277.98 K | 0.1061 | –
278.38 K | 0.1059 | –
278.91 K | 0.1057 | –
279.29 K | – | 7.3e-08
280.19 K | – | 7.27e-08
281.39 K | – | 7.23e-08
297.63 K | 0.1 | –
298.06 K | 0.0999 | –
298.6 K | 0.09972 | –
298.95 K | – | 6.8e-08
299.9 K | – | 6.77e-08
301.09 K | – | 6.74e-08
318.11 K | 0.09429 | –
318.45 K | 0.09416 | –
319.06 K | 0.09398 | –
319.63 K | – | 6.39e-08
320.36 K | – | 6.35e-08
321.67 K | – | 6.31e-08
336.29 K | 0.08957 | –
336.65 K | 0.08944 | –
337.3 K | 0.08925 | –
337.85 K | – | 6.04e-08
338.62 K | – | 6.01e-08
339.96 K | – | 5.97e-08
